This is an account of results in patent publication US9504691B2, “Finafloxacin suspension compositions” (ALCON RESEARCH, LTD., priority 2012, dated 2016).

The test system of series [1] is Ciprofloxacin-Susceptible S. aureus. Description: In vitro antimicrobial susceptibility (MIC), Ciprofloxacin-Susceptible S. aureus. Conditions: 8 isolates; for MIC Range: in µg/mL (unit assumed). It is filed as cell-based. On the procedure: (§1) A finafloxacin solution composition at pH 5.8 and 7.3 was compared to ciprofloxacin and ofloxacin compositions using standard in vitro antimicrobial susceptibility tests (M07-08 Methods for Dilution Antimicrobial Susceptibility Tests for Bacteria that Grow Aerobically; Approved Standard-Eighth Edition (January 2009, Clinical and Laboratory Standards Institute), herein incorporated by reference). Minimum inhibitory concentrations (MIC50) were determined using organisms commonly found in otic and ophthalmic infections. The MIC50 was the lowest concentration of antibiotic that prevented growth of the test organism, as determined visually by a lack of turbidity.
(§2) The results of the experiment are presented below in TABLES 1-5. At acidic pH, finafloxacin generally had greater activity against both Gram-positive and Gram-negative organisms than the fluoroquinolones ciprofloxacin and ofloxacin, both of which are used for the treatment of otic infections. Higher activity under acidic conditions is important for an otic formulation since a low pH formulation is preferred to slow bacterial and fungal growth, as well as the fact the pH environment of the external ear canal is ˜pH 6.

Series [2] concerns Ciprofloxacin-Resistant S. aureus. Description: In vitro antimicrobial susceptibility (MIC), Ciprofloxacin-Resistant S. aureus. It is filed as cell-based. Conditions: 12 isolates; for MIC50 / MIC90: unit assumed; for MIC Range: in µg/mL (unit assumed). On the procedure:
as §1, §2

Series [3] deals with Ciprofloxacin-Resistant P. aeruginosa. Description: In vitro antimicrobial susceptibility (MIC), Ciprofloxacin-Resistant P. aeruginosa. It is filed as cell-based. As to conditions: 11 isolates; for MIC Range: in µg/mL (unit assumed). How it is done: as §1, §2
The test system of series [4] is Ciprofloxacin-Susceptible P. aeruginosa. Description: In vitro antimicrobial susceptibility (MIC), Ciprofloxacin-Susceptible P. aeruginosa. As to conditions: 14 isolates; for MIC Range: in µg/mL (unit assumed). The format is cell-based. On the procedure: as §1, §2
The test system of series [5] is E. coli. The experiment in a line: In vitro antimicrobial susceptibility (MIC), E. coli. As to conditions: 10 isolates. It is filed as cell-based. How it is done:
as §1, §2

Series [6] in a line: Stability studies of finafloxacin formulations. The format is physicochemical. Conditions: aqueous solutions at pH between 5 and 6. On the procedure:
Exploratory stability studies were conducted to physical and chemical stability characteristics of formulations of the present invention.

Series [7] in a line: Stability of finafloxacin free base polymorphs at high temperatures. It is filed as physicochemical. Conditions: temperatures such as those encountered during heat sterilization; compared with forms B and C. An excerpt:
A preferred form of finafloxacin for use in embodiments of the present invention is finafloxacin free base. At least three polymorphs of the finafloxacin free base have been identified (forms A, B, and C). […] The crystalline form of finafloxacin free base form A has an X-ray diffraction spectrum substantially the same as the X-ray powder diffraction spectrum shown in FIG. 1.

Where [8] appears, read: pH 5.8, in µg/mL (unit assumed).
Setting [9] is: pH 7.3, in µg/mL (unit assumed).

In brackets after ≈: the same amount, converted by molar mass.

The term MIC50 denotes an inhibitory concentration at the 50% level, which refers to growth in some studies and to a panel of isolates in others. A lower MIC50 goes with greater potency. As for `O=C(O)c1cn(C2CC2)c2cc(N3CCNCC3)c(F)cc2c1=O` [Ciprofloxacin, ciprofloxacin], the MIC50 in series [1] (pH 5.8) turned out to be 1 µg/mL (≈ 3.02 µM); in series [1] (pH 7.3), 0.25 µg/mL (≈ 0.754 µM); in series [2] (pH 5.8), 128 µg/mL (≈ 386 µM); in series [2] (pH 7.3) it was 128 µg/mL (≈ 386 µM); in series [3] (pH 5.8), 64 µg/mL (≈ 193 µM); in series [3] (pH 7.3) it was 16 µg/mL (≈ 48.3 µM). Also, the MIC50 came to 1 µg/mL (≈ 3.02 µM) in series [4] (pH 5.8), 0.5 µg/mL (≈ 1.51 µM) in series [4] (pH 7.3), 256 µg/mL (≈ 773 µM) in series [5] (pH 5.8) and 16 µg/mL (≈ 48.3 µM) in series [5] (pH 7.3). The “MIC Range” value in series [1] (pH 7.3) is on record as 0.125-1; in series [2] (pH 7.3), 4-128; in series [3] (pH 7.3), 4-512; in series [4] (pH 5.8), 0.125-8; in series [4] (pH 7.3) it was 0.063-2; in series [5] (pH 7.3) it was “≦0.008-128”. For the same molecule, the MIC90 in series [2] (pH 5.8) is greater than 256 µg/mL; in series [2] (pH 7.3), 128 µg/mL (≈ 386 µM); in series [3] (pH 5.8), greater than 512 µg/mL; in series [3] (pH 7.3), 512 µg/mL (≈ 1550 µM); in series [4] (pH 5.8), 8 µg/mL (≈ 24.1 µM); in series [4] (pH 7.3), 2 µg/mL (≈ 6.04 µM). In addition, the values for the MIC90 in series [5] (setting [8]) and in series [5] (setting [9]) were greater than 1024 and 128, respectively.
As for `N#Cc1c(N2C[C@@H]3NCCO[C@H]3C2)c(F)cc2c(=O)c(C(=O)O)cn(C3CC3)c12` [Fina., 8-cyano-1-cyclopropyl-6-fluoro-7-[(4aS,7aS)-hexahydropyrrolo[3,4-b]-1,4-oxazin-6(2H)-yl]-1,4-dihydro-4-oxo-3-quinolinecarboxylic acid], the MIC50 in series [1] (pH 5.8) was 0.016 µg/mL (≈ 0.0402 µM); in series [1] (pH 7.3), 0.125 µg/mL (≈ 0.314 µM); in series [2] (pH 5.8), 4 µg/mL (≈ 10 µM); in series [2] (pH 7.3), 16 µg/mL (≈ 40.2 µM); in series [3] (pH 5.8), 16 µg/mL (≈ 40.2 µM); in series [3] (pH 7.3), 512 µg/mL (≈ 1290 µM). For the same molecule, the MIC50 in series [4] (pH 5.8) is 1 µg/mL (≈ 2.51 µM); in series [4] (pH 7.3), 4 µg/mL (≈ 10 µM); in series [5] (pH 5.8) it was 4 µg/mL (≈ 10 µM); in series [5] (pH 7.3) it was 32 µg/mL (≈ 80.3 µM). For the same molecule, the “MIC Range” value is reported as 0.008-0.125 in series [1] (pH 5.8); 0.016-0.25 in series [1] (pH 7.3); 0.5-8 in series [2] (pH 5.8); 2-16 in series [2] (pH 7.3); 2-512 in series [3] (pH 5.8); 0.25-4 in series [4] (pH 5.8). For the same molecule, the “MIC Range” value in series [4] (pH 7.3) is 2-16; in series [5] (setting [8]), 0.0078-8; in series [5] (setting [9]), 0.008-64. Besides, the MIC90 in series [2] (pH 5.8) was 8 µg/mL (≈ 20.1 µM); in series [2] (pH 7.3), 16 µg/mL (≈ 40.2 µM); in series [3] (pH 5.8), 512 µg/mL (≈ 1290 µM); in series [3] (pH 7.3) it was greater than 512 µg/mL; in series [4] (pH 5.8), 4 µg/mL (≈ 10 µM); in series [4] (pH 7.3), 16 µg/mL (≈ 40.2 µM). In addition, the MIC90 in series [5] (setting [8]) is 8; in series [5] (setting [9]), 64. Further, the “precipitate formation in stability studies” value in series [6] is “precipitates form”.
As to `N#Cc1c(N2C[C@@H]3NCCO[C@H]3C2)c(F)cc2c(=O)c(C(=O)O)cn(C3CC3)c12` [finafloxacin free base form A], the “stability of polymorph at high temperatures” value in series [7] is on record as “most stable at high temperatures”.
For `CC1COc2c(N3CCN(C)CC3)c(F)cc3c(=O)c(C(=O)O)cn1c23` (stereo not drawn) [Ofloxacin, ofloxacin], the MIC50 in series [1] (pH 5.8) was 1 µg/mL (≈ 2.77 µM); in series [1] (pH 7.3), 0.25 µg/mL (≈ 0.692 µM); in series [2] (pH 5.8), 64 µg/mL (≈ 177 µM); in series [2] (pH 7.3) it was 32 µg/mL (≈ 88.6 µM); in series [3] (pH 5.8), 256 µg/mL (≈ 708 µM); in series [3] (pH 7.3), 64 µg/mL (≈ 177 µM). In addition, the MIC50 was found to be 4 µg/mL (≈ 11.1 µM) in series [4] (pH 5.8), 2 µg/mL (≈ 5.53 µM) in series [4] (pH 7.3), 512 µg/mL (≈ 1420 µM) in series [5] (pH 5.8) and 16 µg/mL (≈ 44.3 µM) in series [5] (pH 7.3). Moreover, the “MIC Range” value is on record as 0.5-64 in series [1] (pH 5.8); 0.125-0.5 in series [1] (pH 7.3); 2-256 in series [2] (pH 7.3); 1-32 in series [4] (pH 5.8); 1-4 in series [4] (pH 7.3); 0.25-512 in series [5] (setting [8]). The “MIC Range” value in series [5] (setting [9]) is 0.016-16. Besides, the MIC90 is greater than 512 µg/mL in series [2] (pH 5.8); 256 µg/mL (≈ 708 µM) in series [2] (pH 7.3); greater than 512 µg/mL in series [3] (pH 5.8); greater than 512 µg/mL in series [3] (pH 7.3); 32 µg/mL (≈ 88.6 µM) in series [4] (pH 5.8); 4 µg/mL (≈ 11.1 µM) in series [4] (pH 7.3). The MIC90 in series [5] (setting [8]) worked out at 512; in series [5] (setting [9]) it was 16.
